Data from ChEMBL document CHEMBL3046124, “QSAR for Binding Affinity of Substituted Dibenzoylhydrazines to Intact Sf-9 Cells” (J Pestic Sci, 2005).

Biological target: T1, Ecdysone receptor (Spodoptera frugiperda, UniProt Q8MWR1+Q8MWR2)
T1 sequence (Q8MWR2 whole entry): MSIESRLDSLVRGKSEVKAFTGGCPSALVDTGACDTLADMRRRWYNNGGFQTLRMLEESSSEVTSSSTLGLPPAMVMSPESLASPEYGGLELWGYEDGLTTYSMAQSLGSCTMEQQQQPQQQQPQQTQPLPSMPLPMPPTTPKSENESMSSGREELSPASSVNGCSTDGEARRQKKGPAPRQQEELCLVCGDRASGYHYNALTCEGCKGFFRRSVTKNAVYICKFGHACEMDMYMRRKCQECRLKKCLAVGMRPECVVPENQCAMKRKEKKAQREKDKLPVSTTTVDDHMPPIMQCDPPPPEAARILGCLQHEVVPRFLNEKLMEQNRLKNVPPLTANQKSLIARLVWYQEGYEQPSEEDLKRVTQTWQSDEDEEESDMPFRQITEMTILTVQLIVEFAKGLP
T1 sequence (Q8MWR1 whole entry): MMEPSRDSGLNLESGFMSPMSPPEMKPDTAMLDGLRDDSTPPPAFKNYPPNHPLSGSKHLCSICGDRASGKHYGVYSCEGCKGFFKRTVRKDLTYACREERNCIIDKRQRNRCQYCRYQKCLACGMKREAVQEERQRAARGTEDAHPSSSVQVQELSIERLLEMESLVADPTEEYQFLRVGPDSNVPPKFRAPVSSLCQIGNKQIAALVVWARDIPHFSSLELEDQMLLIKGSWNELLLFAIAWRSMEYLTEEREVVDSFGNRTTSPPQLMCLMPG
Test: Displacement of [3H]PonA from ecdysone receptor in Spodoptera frugiperda (fall armyworm) Sf-9 cells after 30 min by liquid scintillation counting
Type: cell-based

Q: For `CC(C)(C)N(NC(=O)c1ccc(F)cc1)C(=O)c1ccccc1Cl`, which IC50 is on record?
A: 51.3 nM

Q: How did the IC50 turn out when `CC(C)(C)N(NC(=O)c1ccc(Cl)cc1)C(=O)c1ccccc1Cl` was run?
A: 129 nM

Q: `CCCc1ccc(C(=O)NN(C(=O)c2ccccc2Cl)C(C)(C)C)cc1` was tested. Which IC50 did it give?
A: 22.9 nM

Q: For `CC(C)c1ccc(C(=O)NN(C(=O)c2ccccc2Cl)C(C)(C)C)cc1`, which IC50 is on record?
A: 15.1 nM

Q: Which IC50 does the source give for `CCc1ccc(C(=O)NN(C(=O)c2ccccc2Cl)C(C)(C)C)cc1` here?
A: 12.9 nM

Q: How did the IC50 turn out when `CC(C)(C)N(NC(=O)c1ccc(C#N)cc1)C(=O)c1ccccc1Cl` was run?
A: 1820 nM

Q: With `CC(C)(C)N(NC(=O)c1ccc(C(F)(F)F)cc1)C(=O)c1ccccc1Cl` as the compound, how does the IC50 read?
A: 110 nM

Q: Which IC50 does the source give for `CC(C)(C)c1ccc(C(=O)NN(C(=O)c2ccccc2Cl)C(C)(C)C)cc1` here?
A: 21.9 nM

Q: `CC(C)(C)N(NC(=O)c1ccc(S(C)(=O)=O)cc1)C(=O)c1ccccc1Cl` was tested. Which IC50 did it give?
A: 2880 nM

Q: Which IC50 does the source give for `Cc1ccc(C(=O)NN(C(=O)c2ccccc2Cl)C(C)(C)C)cc1` here?
A: 52.5 nM

Q: For `CC(=O)c1ccc(C(=O)NN(C(=O)c2ccccc2Cl)C(C)(C)C)cc1`, which IC50 is on record?
A: 427 nM

Q: How did the IC50 turn out when `CCCCc1ccc(C(=O)NN(C(=O)c2ccccc2Cl)C(C)(C)C)cc1` was run?
A: 5.37 nM

Q: `CC(C)(C)N(NC(=O)c1ccccc1)C(=O)c1ccccc1Cl` was tested. Which IC50 did it give?
A: 83.2 nM

Q: `CC(C)(C)N(NC(=O)c1ccc(Br)cc1)C(=O)c1ccccc1Cl` was tested. Which IC50 did it give?
A: 20.4 nM

Q: How did the IC50 turn out when `CC(C)(C)N(NC(=O)c1ccc(I)cc1)C(=O)c1ccccc1Cl` was run?
A: 50.1 nM

Q: Which IC50 does the source give for `COc1ccc(C(=O)NN(C(=O)c2ccccc2Cl)C(C)(C)C)cc1` here?
A: 61.7 nM

Q: `CC(C)(C)N(NC(=O)c1ccc([N+](=O)[O-])cc1)C(=O)c1ccccc1Cl` was tested. Which IC50 did it give?
A: 380 nM

Q: For `CC(C)(C)N(NC(=O)c1ccc(-c2ccccc2)cc1)C(=O)c1ccccc1Cl`, which IC50 is on record?
A: 6760 nM
